Counter-ions that a name gives are not always drawn. Like-named read-outs stand apart in the source and are kept apart here.
Assays:
[1] = target: Aβ1-42 peptide (Homo sapiens, UniProt P05067); test: Thioflavin T (Thio T)-assay of Aβ aggregation; assay type: biochemical
[2] = in vitro; settings: human
[3] = Detection of compounds in brain after in vivo administration; settings: for Detection in brain after i.v. administration: B6C3 mouse, 5 mg/kg body weight i.v. once, brain samples; for Detectability after oral administration: mouse brain, oral gavage or feeding pellets; for Detection in brain after oral administration, oral gavage administration: five to seven doses over two or three days, sampling 30 min. after last application
[4] = set-up: Detection in brain after i.v. administration: key to the marks not given beside the values; settings: mouse, in vivo
[5] = 30 μM Aβ1-42 peptide, 48 h at 37° C., vs DMSO control, read-out: ThioT: IC50

Aβ1-42 peptide, sequence (P05067 672-713): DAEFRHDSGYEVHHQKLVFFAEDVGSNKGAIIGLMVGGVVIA

For `O=C(O)c1cc(N=Nc2ccccc2)ccc1O` [A, 2-hydroxy-5-(phenyldiazenyl)benzoic acid, reference compound], which IC50 [1, 5] is on record?
The IC50 was 57.4 µM.

Which IC50 [1, 5] does the source give for `O=C(O)c1ccccc1N=Nc1ccc(O)cc1` [B, 2-((4-hydroxyphenyl)diazenyl)Benzoic acid, reference compound] here?
Its IC50 is 736 µM.

Which IC50 [1, 5] does the source give for `O=C(O)c1cc(N=Nc2ccc(-c3ccc(N=Nc4ccc(O)c(C(=O)O)c4)cc3)cc2)ccc1O` [C, (5-5′-biphenyl-4,4′-diylbis(diazene-2,1-diyl)bis(2-hydroxybenzoic acid)), reference compound] here?
The IC50 was 0.5 µM.

Which IC50 at 48 h [2] does the source give for `CN(C)CCCN1c2ccccc2Sc2ccc(Cl)cc21` [Chlorpromazine, Chlorpromazine hydrochloride, reference compound] here?
Its IC50 at 48 h is 14.1 µM.

Which results are given for `Nc1ccc(N=Nc2ccc([N+](=O)[O-])cc2)cc1` [Compound 3, 4-((4-nitrophenyl)diazenyl)aniline]?
IC50 at 48 h [2]: > 100 µM; IC50 [1, 5]: 3.3 µM

Which IC50 at 48 h [2] does the source give for `Oc1ccc(N=Nc2ccccc2)cc1` [Compound 4, 4-(phenyldiazenyl)phenol] here?
The IC50 at 48 h was ~90 µM.

What about the IC50 [1, 5] of the same compound?
Its IC50 is 13.2 µM.

With `Oc1ccc2ccccc2c1N=Nc1ccccn1` [Compound 5, 1-(pyridin-2-yldiazenyl)naphthalen-2-ol] as the compound, how does the “Detection in brain after i.v. administration” value [3] read?
The value was “++”.

And the IC50 at 48 h [2]?
Its IC50 at 48 h is > 10 µM.

What about the IC50 [1, 5] of the same compound?
The IC50 was 12.2 µM.

Which “Detection in brain after i.v. administration” value [3] does the source give for `Nc1ccc(N=Nc2cccc(N=Nc3ccc(N)cc3N)c2)c(N)c1` [Compound 6, 4,4′-1,3-phenylenebis(diazene-2,1-diyl)dibenzene-1,3-diamine] here?
The value was “++”.

And the IC50 at 48 h [2]?
The IC50 at 48 h was ~11 µM.

And the IC50 [1, 5]?
The IC50 was 0.9 µM.

With `CCNc1ccc2ccccc2c1N=Nc1ccc(N=Nc2ccccc2)cc1` [Compound 7, N-ethyl-1-((4-(-phenyldiazenyl)phenyl)diazenyl)naphthalen-2-amine] as the compound, how does the “Detection in brain after i.v. administration” value [3] read?
Its value is “++”.

What about the IC50 at 48 h [2] of the same compound?
The IC50 at 48 h was > 3 µM.

And the IC50 [1, 5]?
Its IC50 is 3.1 µM.

Which IC50 [2] does the source give for `CN(C)c1ccc(N=Nc2ccc(N=C=S)cc2)cc1` [Compound 10, 4-((4-isothiocyanatophenyl)diazenyl)-N,N-dimethylaniline] here?
The IC50 was > 100 µM.

And the “Detection in brain after i.v. administration” value ([4]; iv, 5 mg/kg)?
The value was “++”.

And the “Detectability after oral administration” value ([4]; po)?
Its value is “excellent”.

And the “Detection in brain after oral administration, feeding pellet preparation” value ([4]; po)?
Its value is “++^a), b)”.

And the “Detection in brain after oral administration, oral gavage administration” value ([4]; po)?
Its value is “++^a), b)”.

What about the IC50 [1] of the same compound?
The IC50 was 0.4 µM.

With `O=S(=O)(O)c1cccc(N=Nc2ccc(Nc3ccccc3)cc2)c1` [Compound 11] as the compound, how does the IC50 at 48 h [2] read?
The IC50 at 48 h was > 100 µM.

What about the IC50 [1, 5] of the same compound?
Its IC50 is 9.5 µM.

Which “Detection in brain after i.v. administration” value [3] does the source give for `Oc1ccc(N=Nc2ccccn2)c(O)c1` [Compound 12, 4-(pyridin-2-yldiazenyl)benzene-1,3-diol] here?
Its value is “−”.

What about the IC50 at 48 h [2] of the same compound?
Its IC50 at 48 h is > 1 µM.

And the IC50 [1, 5]?
The IC50 was 3 µM.

Which “Detection in brain after i.v. administration” value [3] does the source give for `O=[N+]([O-])c1ccc(N=Nc2ccc(O)cc2O)cc1` [Compound 13, 4-((4-nitrophenyl)diazenyl)benzene-1,3-diol] here?
Its value is “++”.

What about the “Detectability after oral administration” value [3] of the same compound?
Its value is “excellent”.

What about the “Detection in brain after oral administration, feeding pellet preparation” value ([3]; mouse, brain samples after one week feeding) of the same compound?
The value was “++^a), b)”.

What about the “Detection in brain after oral administration, oral gavage administration” value ([3]; mouse) of the same compound?
The value was “++^a), b)”.

And the IC50 [2]?
Its IC50 is ~2 µM.

And the IC50 [1, 5]?
The IC50 was 1.1 µM.

For `Oc1ccc(N=Nc2nccs2)c(O)c1` [Compound 14, 4-(thiazol-2-yldiazenyl)benzene-1,3-diol], which “Detection in brain after i.v. administration” value [3] is on record?
Its value is “−”.

And the IC50 at 48 h [2]?
Its IC50 at 48 h is > 3 µM.

What about the IC50 [1, 5] of the same compound?
Its IC50 is 4.8 µM.

For `Oc1ccc(N=Nc2ccccc2)c(O)c1` [Compound 15, 4-(phenyldiazenyl)benzene-1,3-diol], which IC50 at 48 h [2] is on record?
Its IC50 at 48 h is ~31 µM.

What about the IC50 [1, 5] of the same compound?
The IC50 was 2.2 µM.

For `Cc1cccc(N=Nc2cc(C=O)c(O)cc2O)c1` [Compound 16, 2,4-dihydroxy-5-(m-tolyldiazenyl)benzaldehyde], which IC50 at 48 h [2] is on record?
The IC50 at 48 h was > 30 µM.

And the IC50 [1, 5]?
The IC50 was 3.3 µM.

With `Oc1ccc(N=Nc2ncn[nH]2)c(O)c1` [Compound 17, 4-((1H-1,2,4-triazol-5-yl)diazenyl)benzene-1,3-diol] as the compound, how does the IC50 at 48 h [2] read?
Its IC50 at 48 h is > 100 µM.

What about the IC50 [1, 5] of the same compound?
Its IC50 is 8 µM.

Which results are given for `Cc1cc(N=Nc2nccs2)c(O)cc1O` [Compound 18, 4-methyl-6-(thiazol-2-yldiazenyl)benzene-1,3-diol]?
Detection in brain after i.v. administration [3]: ++; Detectability after oral administration [3]: excellent; Detection in brain after oral administration, oral gavage administration ([3]; mouse): ++^b)/n.d.^b); IC50 at 48 h [2]: ~13 µM; IC50 [1, 5]: 2.4 µM

What does the source list for `Cc1cc(O)cc(O)c1N=Nc1ccc([N+](=O)[O-])cc1` [Compound 19, 5-methyl-4-((4-nitrophenyl)diazenyl)benzene-1,3-diol]?
Detection in brain after i.v. administration [3]: ++; IC50 at 48 h [2]: ~41 µM; IC50 [1, 5]: 0.9 µM

Which “Detection in brain after i.v. administration” value [3] does the source give for `Oc1ccc(N=Nc2cc(Cl)ccc2Cl)c(O)c1` [Compound 20, 4-((2,5-dichlorophenyl)diazenyl)benzene-1,3-diol] here?
Its value is “++”.

What about the IC50 at 48 h [2] of the same compound?
The IC50 at 48 h was ~3 µM.

What about the IC50 [1, 5] of the same compound?
Its IC50 is 1.3 µM.

Which results are given for `CN(C)c1ccc(N=Nc2ccccc2)cc1` [Compound 21, N,N-dimethyl-4-(phenyldiazenyl)aniline]?
IC50 [2]: > 100 µM; IC50 [1]: 16.8 µM

Which “Detection in brain after i.v. administration” value [3] does the source give for `Cc1cc(O)cc(O)c1N=Nc1nccs1` [Compound 22, 5-methyl-4-(thiazol-2-yldiazenyl)benzene-1,3-diol] here?
The value was “−”.

And the IC50 at 48 h [2]?
Its IC50 at 48 h is ~101 µM.

And the IC50 [1, 5]?
The IC50 was 2.4 µM.

With `O=[N+]([O-])c1ccc(N=NNc2ccc(N=Nc3ccccc3)cc2)cc1` [Compound 23, 1-(4-nitrophenyl)-3-(4-(phenyldiazenyl)phenyl)triaz-1-ene] as the compound, how does the IC50 at 48 h [2] read?
The IC50 at 48 h was > 30 µM.

And the IC50 [1, 5]?
Its IC50 is 1.1 µM.

With `Nc1ccc(N=Nc2ccc(Nc3ccccc3)cc2)cc1` [Compound 24, 4-((4-aminophenyl)diazenyl)-N-phenylaniline] as the compound, how does the IC50 at 48 h [2] read?
The IC50 at 48 h was > 30 µM.

And the IC50 [1, 5]?
The IC50 was 4.8 µM.

Which IC50 [1, 5] does the source give for `Oc1ccc2ccccc2c1N=Nc1ccccc1` [Compound 25, 1-(phenyldiazenyl)naphthalen-2-ol] here?
The IC50 was 43.9 µM.

For `Cc1cc(N=Nc2ccccc2C)ccc1N` [Compound 26, 2-methyl-4-(o-tolyldiazenyl)aniline], which IC50 [1, 5] is on record?
Its IC50 is 31.8 µM.

Which IC50 [1, 5] does the source give for `O=S(=O)(O)c1ccc(N=Nc2ccc(O)cc2O)cc1` [Compound 27, sodium 4-((2,4-dihydroxyphenyl)diazenyl)benzenesulfonate] here?
Its IC50 is 61.5 µM.

Which IC50 [1, 5] does the source give for `O=S(=O)(O)c1cc(O)c2c(N=Nc3ccc(O)cc3O)cc(S(=O)(=O)O)cc2c1` [Compound 28, 4-((2,4-dihydroxyphenyl)diazenyl)-5-hydroxynaphthalene-2,7-disulfonic acid] here?
The IC50 was 19.2 µM.

With `O=S(=O)(O)c1ccc(O)c(N=Nc2ccc(O)cc2O)c1` [Compound 29, sodium 3-((2,4-dihydroxyphenyl)diazenyl)-4-hydroxybenzenesulfonate] as the compound, how does the IC50 [1, 5] read?
Its IC50 is 19.8 µM.

With `COc1ccc(N=Nc2nccs2)c(O)c1` [Compound 30, 5-methoxy-2-(thiazol-2-yldiazenyl)phenol] as the compound, how does the IC50 [1, 5] read?
The IC50 was 27.4 µM.

For `O=[N+]([O-])c1ccc(N=Nc2c(O)ccc3ccccc23)cc1` [Compound 31, 1-((4-nitrophenyl)diazenyl)naphthalen-2-ol], which IC50 [1, 5] is on record?
Its IC50 is 87.1 µM.

Which IC50 [1] does the source give for `c1ccc(N=Nc2ccccc2)cc1` [compound 33, 1,2-diphenyldiazene, reference compound] here?
Its IC50 is 1090 µM.

Which IC50 [1, 5] does the source give for `CCOc1ccc(N=Nc2ccc(C)cc2)cc1C` [compound 34, 1-(4-ethoxy-3-methylphenyl)-2-p-tolyldiazene, reference compound] here?
Its IC50 is 105 µM.
